Values after ≈ are worked out from the molar mass of the structure shown. Values joined by “and” are separate entries in the source; they are usually repeats but may differ in a detail not shown here. Identical values can stand only once. “Also recorded” adds a separate entry of the source.
Key:
thrombin time [1] = experiment: Intraduodenal absorption in rat, thrombin time (Examples 42 and 44); assay type: in vivo, male Wistar rats; design: Mean increase in thrombin time / Thrombin time increase: unit not given here; conditions: for Group mean thrombin time (s ± sd): 20 mg/kg intraduodenal
Method: • Place 10 mg of the relevant compound in an Eppendorf cup • Add 0.5 mL ethanol and shake for 10 minutes • Sonicate for 10 minutes • Add 1.5 mL of buffer • Shake for additional 15 minutes • Resulting target concentration: 5 mg/mL B. Intraduodenal Studies
The intraduodenal studies were performed using male Wistar rats, approximately 8 weeks of age and weighing between 250 and 300 g.
Food was withheld overnight prior to dosing and returned approximately 2 hours post-dose. Water was available ad libitum.
Animals were anaesthetised using gaseous halothane. A small incision was made in the abdomen and the duodenum located. Each animal received a single administration of control or test article by injection directly into the duodenum, using a constant dose volume of 4 mL/kg. Following administration the incision was closed using surgical staples.
Individual dose volumes were based on individual body weights, obtained on the day of dosing. Treatments employed for the study were as follows:
(§1) Approximately 0.6 mL of blood was collected via a tail vein into 3.8% tri sodium citrate tubes approximately 48 hours prior to dosing and again at 0.5, 1, 2, 4 and 8 hours post-dose.
(§2) Plasma was prepared by centrifugation at […] for 10 minutes at 4° C. Plasma was stored frozen (nominally −20° C.) prior to analysis in an automated coagulometer.
The thrombin times determined in example 42 were analysed to determine the standard deviation for increase in thrombin time, expressed as a percentage of the mean value (this is sometimes called the ‘coefficient of variation’).

[2] = Maximum aqueous solubility by UV after shaking in water at 37° C.; assay type: physicochemical; conditions: read-out: Solubility when dissolved at 50 mg/ml
thrombin time and APTT = experiment: Oral administration in dog, PK/PD (Example 45)
Method: Three female and three male dogs were used for each leg of the study. The weight range of the dogs was 8-18 kg.
The PD was measured as thrombin time and APTT using an automated coagulometer. Plasma concentrations were measured using an LCMS/MS method.
The dose was tailored on an individual basis for each dog.

thrombin time [3] = experiment: Oral absorption in rat, thrombin time (Example 43); assay type: in vivo, male Wistar rats; conditions: 20 mg/kg oral gavage
Method: The procedure of Example 42 was followed.
The per-oral studies were performed using male Wistar rats, approximately 8 weeks of age and weighing between 250 and 300 g.
Food was withheld overnight prior to dosing and returned approximately 2 hours post-dose. Water was available adlibitum.
Each animal received a single administration of control or test article by oral gavage, using a constant dose volume of 4 mL/kg.
Individual dose volumes were based on individual body weights, obtained on the day of dosing.
as §1, §2

[4] = Stability in simulated gastric fluid (Example 51); assay type: in vitro ADME; conditions: 37° C.
Method: Approximately 2.5 mg of the compound is dissolved in 50 ml gastric fluid (37° C., according to BP with pepsin, an aliquot is transferred into an HPLC-vial and analysed immediately (time period =0). The aliquots for further time periods in HPLC-vials are stored in an autosampler at 37° C. […]

[5] = Hydrolysis under HPLC assay conditions; assay type: physicochemical; conditions: acid conditions of an HPLC assay / HPLC sample preparation
Text: It has been discovered that TRI 50b tends to hydrolyse.

[6] = individual rats dosed intraduodenally, in s
[7] = gastric juice 0 min, initial set to 100

COCCC[C@H](NC(=O)[C@@H]1CCCN1C(=O)[C@@H](Cc1ccccc1)NC(=O)OCc1ccccc1)B(O)O [TRI 50c, Cbz-(R)-Phe-(S)-Pro-(R)-Mpg-B(OH)2]
Group mean thrombin time (s ± sd) (thrombin time [1]; 0.5 hour): 42.1 ± 19.54 s | Group mean thrombin time (s ± sd) (thrombin time [1]; 1 hour): 27.5 ± 9.42 s | Group mean thrombin time (s ± sd) (thrombin time [1]; 2 hour): 23.5 ± 6.40 s | Group mean thrombin time (s ± sd) (thrombin time [1]; 4 hour): 21.8 ± 2.33 s | Group mean thrombin time (s ± sd) (thrombin time [1]; 8 hour): 21.5 ± 2.67 s | Group mean thrombin time (s ± sd) (thrombin time [1]; −48 hour (pre-dose)): 21.3 ± 2.69 s | Mean increase in thrombin time (thrombin time [1]; 0.5 h minus 0 h, intraduodenal): 20.26 | Thrombin time, 0 h (thrombin time [1]; [6]): 23.70 and 23.10 and 16.85 and 21.67 | Thrombin time, 0.5 h (thrombin time [1]; [6]): 40.02 and 40.20 and 23.60 and 62.55 | Thrombin time increase (thrombin time [1]; individual rats, 0.5 h minus 0 h): 16.32 and 17.10 and 6.75 and 40.88 | solubility [2]: 8 mM (≈ 4200 µg/mL) | absorption as estimated by dynamic response (TT) (thrombin time and APTT): Two animals failed to significantly absorb TRI 50c | time of peak thrombin time post dose (thrombin time and APTT): 1.5 h | mean thrombin clotting time at peak (C max) (thrombin time and APTT; base line 15 seconds (calcium salt), 15.4 seconds (TRI 50c)): 34.2 s | tolerance (thrombin time and APTT; enterically coated gelatine capsules): tolerated well with no adverse events; also recorded: well tolerated orally | Group mean thrombin times (s ± sd) (thrombin time [3]; 0.5 hour): 26.8 ± 1.96 s | Group mean thrombin times (s ± sd) (thrombin time [3]; 1 hour): 23.3 ± 3.68 s | Group mean thrombin times (s ± sd) (thrombin time [3]; 2 hour): 23.9 ± 2.25 s | Group mean thrombin times (s ± sd) (thrombin time [3]; 4 hour): 23.1 ± 2.70 s | Group mean thrombin times (s ± sd) (thrombin time [3]; 8 hour): 25.1 ± 0.33 s | Group mean thrombin times (s ± sd) (thrombin time [3]; −48 hour (pre-dose)): 22.9 ± 2.28 s

COCCC[C@H](NC(=O)[C@@H]1CCCN1C(=O)[C@@H](Cc1ccc(F)cc1)NC(=O)OCc1ccccc1)B([O-])O.[Na+] [TRIf monosodium salt]
results, peak at rt 14.5 min [4, 7]: 100.0 peak-area-% | results, peak at rt 17.3 min [4, 7]: 100.0 peak-area-% | results, peak at rt […] [4, 7]: 100.0 peak-area-% | results, peak at rt 14.5 min ([4]; gastric juice 35 min): 89.6 peak-area-% | results, peak at rt 17.3 min ([4]; gastric juice 35 min): 99.1 peak-area-% | results, peak at rt […] ([4]; gastric juice 35 min): 101.4 peak-area-% | results, peak at rt 14.5 min ([4]; gastric juice 70 min): 84.6 peak-area-% | results, peak at rt 17.3 min ([4]; gastric juice 70 min): 101.8 peak-area-% | results, peak at rt […] ([4]; gastric juice 70 min): 101.1 peak-area-% | results, peak at rt 14.5 min ([4]; gastric juice 105 min): 94.2 peak-area-% | results, peak at rt 17.3 min ([4]; gastric juice 105 min): 100.3 peak-area-% | results, peak at rt […] ([4]; gastric juice 105 min): 97.7 peak-area-% | results, peak at rt 14.5 min ([4]; gastric juice 140 min): 93.9 peak-area-% | results, peak at rt 17.3 min ([4]; gastric juice 140 min): 91.4 peak-area-% | results, peak at rt […] ([4]; gastric juice 140 min): 94.6 peak-area-% | results, peak at rt 14.5 min ([4]; gastric juice 175 min): 94.9 peak-area-% | results, peak at rt 17.3 min ([4]; gastric juice 175 min): 97.7 peak-area-% | results, peak at rt […] ([4]; gastric juice 175 min): 98.6 peak-area-% | results, peak at rt 14.5 min ([4]; gastric juice 210 min): 98.1 peak-area-% | results, peak at rt 17.3 min ([4]; gastric juice 210 min): 94.1 peak-area-% | results, peak at rt […] ([4]; gastric juice 210 min): 94.4 peak-area-%

COCCC[C@H](NC(=O)[C@@H]1CCCN1C(=O)[C@@H](Cc1ccccc1)NC(=O)OCc1ccccc1)B1OC(C)(C)C(C)(C)O1 [TRI 50b, Cbz-(R)-Phe-Pro-BoroMpg-OPinacol]
stability under HPLC assay conditions [5]: converted to the acid form with a short half life

COCCC[C@H](NC(=O)[C@@H]1CCCN1C(=O)[C@@H](Cc1ccccc1)NC(=O)OCc1ccccc1)B([O-])O.[K+] [Potassium Salt of TRI50C]
Group mean thrombin time (s ± sd) (thrombin time [1]; 0.5 hour): 26.5 ± 3.64 s | Group mean thrombin time (s ± sd) (thrombin time [1]; 1 hour): 24.4 ± 3.35 s | Group mean thrombin time (s ± sd) (thrombin time [1]; 2 hour): 23.2 ± 0.83 s | Group mean thrombin time (s ± sd) (thrombin time [1]; 4 hour): 23.2 ± 2.36 s | Group mean thrombin time (s ± sd) (thrombin time [1]; 8 hour): 21.6 ± 0.70 s | Group mean thrombin time (s ± sd) (thrombin time [1]; −48 hour (pre-dose)): 20.0 ± 1.92 s | Group mean thrombin times (s ± sd) (thrombin time [3]; 0.5 hour): 24.7 ± 2.18 s | Group mean thrombin times (s ± sd) (thrombin time [3]; 1 hour): 24.1 ± 1.87 s | Group mean thrombin times (s ± sd) (thrombin time [3]; 2 hour): 22.9 ± 3.29 s | Group mean thrombin times (s ± sd) (thrombin time [3]; 4 hour): 23.2 ± 1.24 s | Group mean thrombin times (s ± sd) (thrombin time [3]; 8 hour): 23.8 ± 1.79 s | Group mean thrombin times (s ± sd) (thrombin time [3]; −48 hour (pre-dose)): 22.0 ± 1.40 s

From patent publication US20050282757A1, “Peptide boronic acid compounds useful in anticoagulation” (Trigen Limited, priority 2002, published 2005)
